Reference: patent US7875587B2, “Peptide analogues of GIP for treatment of diabetes, insulin resistance and obesity” (UUTECH Limited, priority 2004, dated 2011)
No end group written: not given here.

Key:
[1] = tested on: obese diabetic ob/ob mice; experiment: Acute in vivo effects of (Pro3)GIP in obese diabetic ob/ob mice; parameters: species or system mouse
Experimental: Acute in vivo effects of (Pro^3)GIP administration in obese diabetic ob/ob mice. Plasma glucose and insulin responses were evaluated using 8- to 12-week old obese diabetic ob/ob mice following intraperitoneal (i.p.) injection of native GIP, (Pro^3)GIP (25 nmol/kg body weight) or saline (0.9% (w/v) NaCl; control) immediately following the combined injection of GIP (25 nmol/kg body weight) with glucose (18 mmol/kg body weight). All test solutions were administered in a final volume of 8 ml/kg body weight. Blood samples were collected from the cut tip of the tail of conscious mice into chilled fluoride/heparin microcentrifuge tubes (Sarstedt, Numbrecht, Germany) immediately prior to injection and at 15, 30 and 60 minutes post injection. Blood samples were immediately centrifuged using a Beckman microcentrifuge (Beckman Instruments, UK) for 30 seconds at 13000 g and stored at −20° prior to glucose and insulin determinations.
Acute in vivo effects of (Pro^3)GIP on plasma glucose and insulin responses to feeding in obese diabetic ob/ob mice. Plasma glucose and insulin responses were evaluated using 8- to 12-week old ob/ob mice where food was withdrawn for an 18-hour period prior to intraperitoneal injection of saline (0.9% (w/v) NaCl; control) or (Pro^3)GIP (25 nmol/kg body weight). Following injection, the mice were allowed to re-feed for 15 minutes. Blood samples were collected from the cut tip of the tail of conscious mice into chilled fluoride/heparin microcentrifuge tubes (Sarstedt, Numbrecht, Germany) immediately prior to injection and at 15, 30, 60 and 120 minutes post injection. Blood samples were immediately centrifuged using a Beckman microcentrifuge (Beckman Instruments, UK) for 30 seconds at 13000 g and stored at −20° prior to glucose and insulin determinations.
(§1) Determination of HbA1c, plasma glucose and insulin concentrations. HbA1c was measured in whole blood by ion-exchange high-performance liquid chromatography using the Menari HA-8140 kit (BIOMEN, Berkshire, UK). Plasma glucose was assayed by an automated glucose oxidase procedure using a Beckman Glucose Analyzer II (Stevens, J. F., 1971, Clinica Chemica Acta 32:199-201) and plasma insulin was determined by RIA (Flatt, P. R. et al., 1981, Diabetologia 20:573-577). Incremental areas under plasma glucose and insulin curves (AUC) were calculated using a computer generated program (CAREA) employing the trapezoidal rule (Burington, R. S., 1973, Handbook of Mathematical Tables and Formulae, New York, McGraw Hill) with baseline subtraction.

[2] = tested on: obese diabetic ob/ob mice; experiment: Chronic (11 days, s.c.) (Pro3)GIP administration in obese diabetic ob/ob mice; format: in vivo, mouse
Experimental: Effects of chronic (Pro^3)GIP administration on plasma glucose, insulin and glycated HbA1c in obese diabetic ob/ob mice and normal mice. Obese diabetic ob/ob mice and normal control mice aged 8-12 weeks were randomly divided into groups which received once daily subcutaneous injections (17:00 h) of either saline (0.9% w/v NaCl) or (Pro^3)GIP (25 nmol/kg body weight in saline). After 11 days, treatment was ceased. Food intake and body weight were recorded daily. Blood samples were collected from the cut tip of the tail of conscious mice into chilled fluoride/heparin coated glucose microcentrifuge tubes (Sarstedt, Numbrecht, Germany). Blood samples were immediately centrifuged using a Beckman microcentrifuge (Beckman Instruments, UK) for 30 seconds at 13000 g prior to glucose, insulin and HbA1c determinations.
Effects of chronic treatment with (Pro^3)GIP on glucose tolerance in ob/ob mice and normal mice. Plasma glucose and insulin concentrations were measured following intraperitoneal administration of glucose (18 mmol/kg body weight) in ob/ob and normal mice treated with either saline (0.9% w/v NaCl) or (Pro^3)GIP (25 nmol/kg body weight/day) for 11 days. This test was repeated 9 days after cessation of chronic (Pro^3)GIP treatment. Blood samples were collected from the cut tip of the tail of conscious mice into chilled fluoride/heparin microcentrifuge tubes (Sarstedt, Numbrecht, Germany) immediately prior to injection and at 15, 30 and 60 minutes post injection. Blood samples were immediately centrifuged using a Beckman microcentrifuge (Beckman Instruments, UK) for 30 seconds at 13000 g and stored at −20° prior to glucose and insulin determinations.
Effects of chronic treatment with (Pro^3)GIP on the glucose lowering effects of exogenous insulin in ob/ob mice. The glucose lowering effects of insulin were evaluated by measuring plasma glucose response in 11-day saline (0.9% w/v NaCl) and (Pro^3)GIP (25 nmol/kg body weight/day) treated ob/ob mice following acute intraperitoneal administration of insulin (50 U/kg bodyweight). Blood samples were collected from the cut tip of the tail of conscious mice into chilled fluoride/heparin microcentrifuge tubes (Sarstedt, Numbrecht, Germany) immediately prior to injection and at 30 and 60 minutes post injection. Blood samples were immediately centrifuged using a Beckman microcentrifuge (Beckman Instruments, UK) for 30 seconds at 13000 g and stored at −20° prior to glucose determination.
Effects of chronic treatment with (Pro^3)GIP on pancreatic insulin content and associated islet hypertrophy in ob/ob mice. Pancreatic tissue was excised from non-fasted ob/ob mice after 11 days treatment with either saline (0.9% w/v NaCl) or (Pro^3)GIP (25 nmol/kg body weight/day). Pancreatic samples were individually wrapped in aluminium foil and snap frozen in liquid nitrogen. Individual excised pancreatic samples were then either embedded, sectioned and immunohistochemically stained for insulin or permeabilised for determination of pancreatic insulin content.
as §1

[3] = 25 nmol/kg i.p., 15 min re-feeding after 18 h fast
[4] = 25 nmol/kg/day s.c., 11 days, vs saline

“YAPGTFISDYSIAMDKIHQQDFVNWLLAQKGKKNDWKHNITQ [(Pro^3)GIP]” was tested, and the “antagonism of insulin-releasing action of GIP and improvement of glucose tolerance” value ([1]; 25 nmol/kg i.p. with GIP 25 nmol/kg and glucose 18 mmol/kg) was “completely antagonised”, the “glycemic excursion compared with glucose alone” value ([1]; 25 nmol/kg i.p. with GIP and glucose) was “worse than when glucose was administered alone” and the “glycemic excursion after feeding” value [1, 3] was “worsened”. The “insulin response to feeding” value [1, 3] was “decreased”, the HbA1c ([2]; 25 nmol/kg/day s.c., 11 days) was “significant decreases” and the islet hypertrophy ([2]; 25 nmol/kg/day s.c., 11 days) was “partial correction”. For the same sequence, the pancreatic insulin stores ([2]; 25 nmol/kg/day s.c., 11 days) was “significant decreases”, the plasma glucose concentration [2, 4] was “decreases” and the plasma insulin concentration [2, 4] was “decreases”. The “persistence of beneficial effects after cessation” value ([2]; 9 days after cessation of treatment) was “reversed 9 days after cessation of treatment”, the food intake ([2]; 11 days) was “without any change” and the “decrease in body weight” value ([2]; 11 days, did not achieve significance) was ~7%. The “circulating insulin during glucose tolerance test” value ([2]; after 11 days treatment) was “without change”, the glucose tolerance ([2]; after 11 days treatment, i.p. glucose 18 mmol/kg) was “substantially improved” and the insulin sensitivity ([2]; after 11 days, exogenous insulin 50 U/kg i.p.) was “significant improvement of insulin sensitivity”.
